The values that follow come from US9635879B2, “Sweetener” (Tate & Lyle Ingredients Americas LLC, priority 2013, dated 2017).

Each structure is given as a SMILES string. Marks after values point to notes of the source that are not given here.

Test [1] can be described thus: Round table sensory evaluation with test panelists: sucrose equivalent value (SEV) against sucrose reference samples. It counts as in vivo. To be noted: for Sweetness (mean SEV), two-way ANOVA, grouping (Duncan): second Sweetness line, superscripts = Duncan grouping, level of significance 5%. On the procedure: Round table evaluations were performed with test panelists. Equal sweet 10 SEV concentrations in neutral pH water were made for allulose, fructose and sucralose, as well as a composition comprising allulose, fructose and sucralose. The components of the test compositions are described in the below tables. The mixed compositions were calculated using the Beidler mixture equation for the sweeteners. The Beidler mixture equation for sweeteners is as follows: […]
The concentration of each component in the mixture in ppm is divided by SEV (c/R) and is plotted against concentration, c. The slope of the linear regression is the maximum SEV (Rmax). The y-intercept of the linear regression multiplied by Rmax is the half-maximal sweetness concentration, 1/K. Rmax and 1/K are the two parameters used in the Beidler equation.
The equal-molar mixture was tested against reference samples for the panelists to determine SEV values. […] The test samples were served in 2 ounce (approximately 60 ml) soufflé cups coded with 3-digit codes at room temperature. A two minute wait period between samples was enforced. Water and unsalted crackers was available for the panelists to clear their palates before and during testing. EyeQuestion was used for ballot development and recording of results. Results were collected in EyeQuestion for calculating approximate SEV level of each test sample. The test products analyzed in this experiment are described below in Table 1.

The conditions of test [2]: times as sweet as sucrose; cited from earlier work.
The mark [3] stands for this setting: neutral pH water, room temperature, samples made to equal sweet 10 SEV, references 4-14% sucrose.

For `OC[C@H]1O[C@H](O[C@]2(CCl)O[C@H](CCl)[C@@H](O)[C@@H]2O)[C@H](O)[C@@H](O)[C@H]1Cl` [Sucralose, sucralose], in test [1] (first Sweetness line, superscripts = level of significance (Duncan)), the “Sweetness (mean SEV), two-way ANOVA, level of significance (Duncan)” value is given as 9.29. For the same compound, in test [1] (setting [3]), the “Mean sucrose equivalent value (SEV) (Mean 1)” value (“Mean sucrose equivalent value” for short) is 9.286 and the “Median sucrose equivalent value (SEV) (Median 1)” value is given as 10. The “Sweetness (mean SEV), two-way ANOVA, grouping (Duncan)” value (“Sweetness … grouping (Duncan)” below) in test [1] is given as 9.29^c. Also, the “Sweetness relative to sucrose” value in test [2] is “approximately 600 times”.
As to `O=C(CO)C(O)C(O)C(O)CO` (stereo not drawn) [Allulose, allulose], in test [1] (setting [3]), the “Mean sucrose equivalent value” value was determined as 10.14. In test [1], the “Sweetness … grouping (Duncan)” value is listed as 10.14^b-c.
Regarding `O=C(CO)[C@@H](O)[C@H](O)[C@H](O)CO` [Fructose, fructose], the “Mean sucrose equivalent value” value in test [1] (setting [3]) came out at 10.14. For the same compound, the “Sweetness … grouping (Duncan)” value in test [1] is on record as 10.14^b-c.
